Laboratory results published in PMC6352954, “Benzylamides and piperazinoarylamides of ibuprofen as fatty acid amide hydrolase inhibitors” (Journal of Enzyme Inhibition and Medicinal Chemistry, 2019).

How the values were obtained:
FAAH [1] = biological target: T1, FAAH (Rattus norvegicus, UniProt P97612); details: cited from earlier work
T1 sequence (P97612 1-579): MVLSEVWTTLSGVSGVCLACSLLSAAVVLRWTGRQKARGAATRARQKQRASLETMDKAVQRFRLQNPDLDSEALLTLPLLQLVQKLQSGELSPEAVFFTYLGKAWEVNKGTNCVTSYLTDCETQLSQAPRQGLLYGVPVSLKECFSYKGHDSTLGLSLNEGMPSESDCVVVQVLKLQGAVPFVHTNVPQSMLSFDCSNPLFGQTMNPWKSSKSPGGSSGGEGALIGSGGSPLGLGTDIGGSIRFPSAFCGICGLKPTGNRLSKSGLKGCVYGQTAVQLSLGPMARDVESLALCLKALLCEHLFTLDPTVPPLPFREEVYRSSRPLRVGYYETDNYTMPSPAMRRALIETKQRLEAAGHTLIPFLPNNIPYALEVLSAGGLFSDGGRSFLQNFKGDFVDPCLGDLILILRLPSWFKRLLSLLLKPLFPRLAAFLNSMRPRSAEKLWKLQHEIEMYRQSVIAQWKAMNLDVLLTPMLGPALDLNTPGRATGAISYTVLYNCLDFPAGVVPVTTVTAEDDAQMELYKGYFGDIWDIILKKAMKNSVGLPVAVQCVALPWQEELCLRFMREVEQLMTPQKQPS

FAAH [2] = biological target: T1, FAAH; assay: FAAH assay: inhibition of rat brain [3H]AEA hydrolysis; details: for FAAH inhibitory activity (in words): 0.5 μM [3H]AEA, rat brain homogenates
Description: Frozen (−80 °C) brains (minus cerebella) from adult Wistar or Sprague-Dawley rats were thawed and homogenised in 20 mM HEPES, 1 mM MgCl2, pH 7.0. and thereafter centrifuged at ∼35000 × g for 20 min at 4 °C. Homogenates were washed (by centrifugation at ∼35000 × g for 20 min at 4 °C followed by resuspension in the buffer) twice and incubated at 37 °C for 15 min in order to hydrolyse all endogenous FAAH substrates. After a further centrifugation, pellets were resuspended in 50 mM Tris-HCl buffer, pH 7.4, containing 1 mM EDTA and 3 mM MgCl2, and frozen at −80 °C in aliquots until used for the assay. For the FAAH assay[34] test compounds, homogenates (usually 0.5–0.8 μg protein per assay, diluted with 10 mM Tris-HCl, 1 mM EDTA pH 7.4) and 25 μL of [^3H]AEA in 10 mM Tris- HCl, 1 mM EDTA, pH 7.4, containing 1% w/v fatty acid-free bovine serum albumin, final substrate concentration of 0.5 μM) were incubated for 10 min at 37 °C (final assay volume 200 μL). Reactions were stopped by placing the tubes on ice. Final assay concentrations of the solvents used for the compounds (ethanol or DMSO) were in the range 1–5%. Activated charcoal (80 μL + 320 μL 0.5 M HCl) was added and the samples were mixed and left at room temperature for about 30 min. Following centrifugation at 2500 rpm for 10 min, aliquots (200 μL) of the supernatants were analysed for tritium content by liquid scintillation spectroscopy with quench correction. Blank values were obtained by the use of buffer rather than homogenate.
In general, FAAH assays upon three homogenates were undertaken using separate inhibitor dilution series (from a stock solution), with 6 concentrations of inhibitor in half-log concentrations (i.e. 1, 3, 10 µM etc) ranging from 0.3–100 µM. Data were expressed as % of vehicle control and analysed using the algorithm log(inhibitor) vs. response – variable slope (four parameters) built into the GraphPad Prism computer programme for the Macintosh (GraphPad Software Inc., San Diego, CA). Two different curve fits were chosen: one where the top (uninhibited) value was set to 100 and the bottom (maximum inhibition) was set to 0, and one where the top was set to 100 and the bottom allowed to float. The best model (when the bottom value returned >0) was chosen by Akaike’s informative criteria. Since the programme uses log10 inhibitor concentrations, the IC50 values for the inhibitable fraction are derived from the corresponding − log10(IC50) (pI50) values. […] In consequence, we report both pI50 and IC50 values to indicate the SE values.
The inhibition assays were performed using 0.5 μM [^3H]AEA as substrate and rat brain homogenates as the enzyme source.

[3] = design: method as in PMID 12767601; details: cited from earlier work

Cc1cccnc1NC(=O)[C@@H](C)c1ccc(CC(C)C)cc1 [(S)-IbuAM5]
FAAH inhibitory activity of (S)-enantiomer relative to (R)-enantiomer (FAAH [1]): 10 fold

CC(C)Cc1ccc(C(C)C(=O)NCc2ccccc2Cl)cc1 (centres unmarked) [Compound 11, N-(2-Chlorobenzyl)-2–(4-isobutylphenyl)propanamide]
IC50 (FAAH [2]): 4.1 µM

CC(C)Cc1ccc(C(C)C(=O)NCc2ccc(Cl)cc2Cl)cc1 (centres unmarked) [Compound 14, N-(2,4-Dichlorobenzyl)-2–(4-isobutylphenyl)propanamide]
IC50 (FAAH [2]): 21 µM

CC(C)Cc1ccc(C(C)C(=O)NCc2cc(Cl)ccc2Cl)cc1 (centres unmarked) [Compound 15, N-(2,5-Dichlorobenzyl)-2–(4-isobutylphenyl)propanamide]
IC50 (FAAH [2]): 4.4 µM

CC(C)Cc1ccc(C(C)C(=O)NCc2c(Cl)cccc2Cl)cc1 (centres unmarked) [Compound 16, N-(2,6-Dichlorobenzyl)-2–(4-isobutylphenyl)propanamide]
melting point: 130 to 135 °C | FAAH inhibitory activity (in words) (FAAH [2]): complete loss of activity

CC(C)Cc1ccc(C(C)C(=O)N2CCN(c3ccc(Cl)c(Cl)c3)CC2)cc1 (centres unmarked) [Compound 21, 1–(4-(3,4-Dichlorophenyl)piperazin-1-yl)-2–(4-isobutylphenyl)propan-1-one]
loss of FAAH inhibitory activity relative to amide 19 (FAAH [2]; 3,4-dichlorophenyl versus 3-chlorophenyl analogue): 10 fold

CC(C)Cc1ccc(C(C)C(=O)N2CCN(c3ccc(F)cc3)CC2)cc1 (centres unmarked) [Compound 22, 1–(4-(4-Fluorophenyl)piperazin-1-yl)-2–(4-isobutylphenyl)propan-1-one]
IC50 (FAAH [2]): 17 µM

Cc1ccccc1N1CCN(C(=O)C(C)c2ccc(CC(C)C)cc2)CC1 (centres unmarked) [Compound 27, 2–(4-Isobutylphenyl)-1–(4-(o-tolyl)piperazin-1-yl)propan-1-one]
FAAH inhibitory activity (in words) (FAAH [2]): loss of activity

Cc1cccnc1NC(=O)C(C)c1ccc(CC(C)C)cc1 (centres unmarked) [Ibu-AM5]
potency as reversible FAAH inhibitor relative to ibuprofen (FAAH [1]): two to three orders of magnitude more potent than ibuprofen | ulcerogenic potency relative to ibuprofen [3]: much lower ulcerogenic potency than ibuprofen
